Reference: patent publication US8618137B2 (priority 2008, dated 2013)
Read-outs that look alike come from different tables or passages of the source. Marks after values point to notes of the source that are not given here.

Legend:
Format in all cases: in vivo
[1] = system: Plasmopara viticola (the causal agent of grape downy mildew); assay: Test A: grape downy mildew, grape seedlings inoculated then sprayed with test suspension, visual disease rating; settings: 100 = 100% disease control, 0 = no control relative to controls
Text: General protocol for preparing test suspensions for Tests A-B2: The test compounds were first dissolved in acetone in an amount equal to 3% of the final volume and then suspended at the desired concentration (in ppm) in acetone and purified water (50/50 mix by volume) containing 250 ppm of the surfactant Trem® 014 (polyhydric alcohol esters). The resulting test suspensions were then used in Tests A-B2. Spraying a 200 ppm test suspension to the point of run-off on the test plants was the equivalent of a rate of 800 g/ha.
Grape seedlings were inoculated with a spore suspension of Plasmopara viticola (the causal agent of grape downy mildew) and incubated in a saturated atmosphere at 20° C. for 24 h. After a short drying period, the grape seedlings were sprayed with the test suspension to the point of run-off, then moved to a growth chamber at 20° C. for 5 days, and then back into a saturated atmosphere at 20° C. for 24 h. Upon removal, visual disease ratings were made.
Results for Tests A-B2 are given in Table A. In the Table, a rating of 100 indicates 100% disease control and a rating of 0 indicates no disease control (relative to the controls). All results are for 10 ppm except where followed by an “*” which indicates 40 ppm and “**” which indicates 200 ppm.

[2] = system: Phytophthora infestans (the causal agent of tomato late blight); settings: sprayed 17 h after inoculation, 100 = 100% disease control, 0 = no control
[3] = system: Phytophthora infestans (the causal agent of tomato late blight); settings: sprayed the day before inoculation, 100 = 100% disease control, 0 = no control
[4] = test suspension 10 ppm, listed as 2

| Compound | Test A rating (disease control) ([1]; test suspension 10 ppm) | Test B2 rating (disease control) ([2]; test suspension 10 ppm) | Test B1 rating (disease control) ([3]; test suspension 10 ppm) | Test A rating (disease control) ([1]; test suspension 40 ppm (*)) | Test B2 rating (disease control) ([2]; test suspension 40 ppm (*)) | Test B1 rating (disease control) ([3]; test suspension 40 ppm (*)) | further results |
| --- | --- | --- | --- | --- | --- | --- | --- |
| 1-[4-[4-[5-(2,6-difluorophenyl)-4,5-dihydro-3-isoxazolyl]-2-thiazolyl]-1-piperidinyl]-2-(4,5-dihydro-3,5-dimethyl-1H-pyrazol-1-yl]ethanone [Compound 40] | 100% | 98% | 100% |  |  |  |  |
| 2,2,2-trifluoroacetaldehyde, O-[2-[4-[4-[5-(2,6-difluorophenyl)-4,5-dihydro-3-isoxazolyl]-2-thiazolyl]-1-piperidinyl]-2-oxoethyl]oxime [Compound 3] | 100% | 99% | 100% |  |  |  |  |
| CC(C)=NOC(C(=O)N1CCC(c2nc(C3=NOC(c4c(F)cccc4F)C3)cs2)CC1)c1ccccc1 (mixture of isomers) [compound 32] |  |  |  | 94* % | 92* % | 100* % |  |
| CCC(ON=C(C)C)C(=O)N1CCC(c2nc(C3=NOC(c4c(F)cccc4F)C3)cs2)CC1 (mixture of isomers) [compound 39] |  |  |  | 100* % | 99* % | 100* % |  |
| CC(=NOCC(=O)N1CCC(c2nc(C3=NOC(c4c(F)cccc4F)C3)cs2)CC1)C(F)(F)F (racemic) [Compound 4] | 100% | 99% | 100% |  |  |  |  |
| CCCC=NOCC(=O)N1CCC(c2nc(C3=NOC(c4c(F)cccc4F)C3)cs2)CC1 (racemic) [compound 10] | 98% | 88% | 95% |  |  |  |  |
| CSC(=NOCC(=O)N1CCC(c2nc(C3=NOC(c4c(F)cccc4F)C3)cs2)CC1)C(=O)N(C)C (racemic) [compound 11] | 0% | 0% | 26% |  |  |  |  |
| CSC(C)=NOCC(=O)N1CCC(c2nc(C3=NOC(c4c(F)cccc4F)C3)cs2)CC1 (racemic) [compound 12] | 17% | 0% | 47% |  |  |  |  |
| CC(C)=NOCC(=O)N1CCC(c2nc(C3=NOC(c4ccccc4C)C3)cs2)CC1 (racemic) [compound 14] | 100% | 88% | 98% |  |  |  |  |
| CCC(C)=NOCC(=O)N1CCC(c2nc(C3=NOC(c4c(F)cccc4F)C3)cs2)CC1 (racemic) [compound 16] | 100% | 99% | 100% |  |  |  |  |
| O=C(CON=CC(Cl)(Cl)Cl)N1CCC(c2nc(C3=NOC(c4c(F)cccc4F)C3)cs2)CC1 (racemic) [compound 17] | 66% | 47% | 97% |  |  |  |  |
| N#Cc1ccccc1C1CC(c2csc(C3CCN(C(=O)CON=CC(F)(F)F)CC3)n2)=NO1 (racemic) [compound 20] | 100% | 99% | 100% |  |  |  |  |
| CC(C)=NOCCC(=O)N1CCC(c2nc(C3=NOC(c4c(F)cccc4F)C3)cs2)CC1 (racemic) [compound 21] |  |  |  | 100* % | 98* % | 100* % |  |
| CC=NOCC(=O)N1CCC(c2nc(C3=NOC(c4c(F)cccc4F)C3)cs2)CC1 (racemic) [compound 22] | 100% | 99% | 100% |  |  |  |  |
| CCC(=NOCC(=O)N1CCC(c2nc(C3=NOC(c4c(F)cccc4F)C3)cs2)CC1)C(F)(F)F (racemic) [compound 23] | 98% | 83% | 99% |  |  |  |  |
| CC(CC(C)C)=NOCC(=O)N1CCC(c2nc(C3=NOC(c4c(F)cccc4F)C3)cs2)CC1 (racemic) [compound 25] |  |  |  | 93* % | 58* % | 100* % |  |
| CC(CC(F)(F)F)=NOCC(=O)N1CCC(c2nc(C3=NOC(c4c(F)cccc4F)C3)cs2)CC1 (racemic) [compound 26] | 100% | 99% | 100% |  |  |  |  |
| CC(C)C=NOCC(=O)N1CCC(c2nc(C3=NOC(c4c(F)cccc4F)C3)cs2)CC1 (racemic) [compound 27] |  |  |  | 98* % | 99* % | 100* % |  |
| CC(C)CC=NOCC(=O)N1CCC(c2nc(C3=NOC(c4c(F)cccc4F)C3)cs2)CC1 (racemic) [compound 28] |  |  |  | 98* % | 68* % | 95* % |  |
| CCC=NOCC(=O)N1CCC(c2nc(C3=NOC(c4c(F)cccc4F)C3)cs2)CC1 (racemic) [compound 30] |  |  |  | 100* % | 99* % | 100* % |  |
| CC(C)(C)OC(=O)NCCC(=O)N1CCC(c2nc(C3=NOC(c4c(F)cccc4F)C3)cs2)CC1 (racemic) [compound 33] |  |  |  |  |  |  | Test A rating (disease control) ([1]; test suspension 200 ppm (**)): 0** %; Test B2 rating (disease control) ([2]; test suspension 200 ppm (**)): 0** %; Test B1 rating (disease control) ([3]; test suspension 200 ppm (**)): 68** % |
| O=C(CCNC(=O)C(F)(F)F)N1CCC(c2nc(C3=NOC(c4c(F)cccc4F)C3)cs2)CC1 (racemic) [compound 34] |  |  |  |  |  |  | Test A rating (disease control) ([1]; test suspension 200 ppm (**)): 33** %; Test B2 rating (disease control) ([2]; test suspension 200 ppm (**)): 40** %; Test B1 rating (disease control) ([3]; test suspension 200 ppm (**)): 97** % |
| O=C(CON=CC(F)(F)F)N1CCC(c2nc(C3=NOC(c4c(F)cccc4F)C3)cs2)CC1 (stereo not drawn) [Compound 3, 2,2,2-trifluoroacetaldehyde, O-[2-[4-[4-[5-(2,6-difluorophenyl)-4,5-dihydro-3-isoxazolyl]-2-thiazolyl]-1-piperidinyl]-2-oxoethyl]oxime] | 100% | 99% | 100% |  |  |  |  |
| O=C(CON=C1CCCC1)N1CCC(c2nc(C3=NOC(c4c(F)cccc4F)C3)cs2)CC1 (stereo not drawn) [Compound 5] | 95% | 98% | 95% |  |  |  | Test A rating (disease control) [1, 4]: 100%; Test B2 rating (disease control) [2, 4]: 100%; Test B1 rating (disease control) [3, 4]: 100% |
| C[C@H](c1ccccc1)N(C)C(=O)c1csc(C2CCN(C(=O)CON=CC(F)(F)F)CC2)n1 [Compound 31, N-methyl-N-[(1R)-1-phenylethyl]-2-[1-[2-[[(2,2,2-trifluoroethylidene)amino]oxy]acetyl]-4-piperidinyl]-4-thiazolecarboxamide] |  |  |  | 100* % | 99* % | 100* % |  |
| CN(CC(=O)N1CCC(c2nc(C3=NOC(c4c(F)cccc4F)C3)cs2)CC1)N=CC(F)(F)F (stereo not drawn) [Compound 35] |  |  |  | 100* % | 99* % | 100* % |  |
| CN(CC(=O)N1CCC(c2nc(C3=NOC(c4c(F)cccc4F)C3)cs2)CC1)NC(=O)C(F)(F)F (stereo not drawn) [Compound 36, 2,2,2-trifluoroacetic acid 2-[2-[4-[5-(2,6-difluorophenyl)-4,5-dihydro-3-isoxazolyl]-2-thiazolyl-1-piperidinyl]-2-oxoethyl]-2-methylhydrazide] |  |  |  |  |  |  | Test A rating (disease control) ([1]; test suspension 200 ppm (**)): 60** %; Test B2 rating (disease control) ([2]; test suspension 200 ppm (**)): 93** %; Test B1 rating (disease control) ([3]; test suspension 200 ppm (**)): 100** % |
| O=C(CONC(=O)C(F)(F)F)N1CCC(c2nc(C3=NOC(c4c(F)cccc4F)C3)cs2)CC1 (stereo not drawn) [Compound 38] | 98% | 90% | 90% | 99* % | 99* % | 100* % |  |
| CC1=NN(CC(=O)N2CCC(c3nc(C4=NOC(c5c(F)cccc5F)C4)cs3)CC2)C(C)C1 (stereo not drawn) [Compound 40, 1-[4-[4-[5-(2,6-difluorophenyl)-4,5-dihydro-3-isoxazolyl]-2-thiazolyl]-1-piperidinyl]-2-(4,5-dihydro-3,5-dimethyl-1H-pyrazol-1-yl]ethanone] |  |  |  | 97* % | 99* % | 100* % |  |
| CC(C)=NOCC(=O)N1CCC(c2nc(C3=NOC4(CCc5ccccc54)C3)cs2)CC1 (stereo not drawn) [compound 13] | 99% | 99% | 99% |  |  |  |  |
